These results are taken from US20240252428A1, “METHODS OF PROVIDING BIRTH CONTROL” (THE POPULATION COUNCIL, INC., priority 2021, published 2024).

For one data set, the target named is T1, progesterone receptor (Homo sapiens, UniProt P06401).
T1 sequence (P06401 1-933): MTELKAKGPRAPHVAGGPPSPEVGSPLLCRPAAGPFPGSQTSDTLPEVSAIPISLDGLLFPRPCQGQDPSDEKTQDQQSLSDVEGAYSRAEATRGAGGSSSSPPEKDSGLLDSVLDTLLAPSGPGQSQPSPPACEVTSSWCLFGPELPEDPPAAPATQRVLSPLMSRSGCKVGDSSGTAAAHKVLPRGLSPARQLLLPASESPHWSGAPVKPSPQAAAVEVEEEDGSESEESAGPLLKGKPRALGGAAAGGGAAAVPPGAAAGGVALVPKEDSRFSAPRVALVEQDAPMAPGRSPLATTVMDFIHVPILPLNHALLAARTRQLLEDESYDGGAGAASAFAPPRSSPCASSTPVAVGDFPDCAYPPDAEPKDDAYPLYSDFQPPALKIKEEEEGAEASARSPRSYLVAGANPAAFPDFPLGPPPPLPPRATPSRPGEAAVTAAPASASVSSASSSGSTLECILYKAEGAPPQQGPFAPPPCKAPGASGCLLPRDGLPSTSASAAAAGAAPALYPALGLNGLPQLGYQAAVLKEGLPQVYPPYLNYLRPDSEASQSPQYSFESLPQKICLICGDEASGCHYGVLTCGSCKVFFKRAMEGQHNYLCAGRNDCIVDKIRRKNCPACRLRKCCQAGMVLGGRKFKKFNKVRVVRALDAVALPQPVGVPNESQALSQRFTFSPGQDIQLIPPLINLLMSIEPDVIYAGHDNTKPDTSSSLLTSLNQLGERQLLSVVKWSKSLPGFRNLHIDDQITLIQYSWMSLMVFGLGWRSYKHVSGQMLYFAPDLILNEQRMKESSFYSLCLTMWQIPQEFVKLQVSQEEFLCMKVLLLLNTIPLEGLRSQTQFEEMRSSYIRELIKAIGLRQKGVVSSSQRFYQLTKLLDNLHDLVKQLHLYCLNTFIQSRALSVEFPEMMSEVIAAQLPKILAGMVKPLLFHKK
Nature of the data set: Progesterone receptor activity of SA metabolites. The data set is classed as biochemical. An excerpt: The hydroxylated EE metabolites have weak estrogenic activity.

Data set [1] can be described thus: Drug-drug interaction study with vaginal miconazole formulations. Format: in vivo. As to conditions: for overall increase in exposure: with 1 day or 3-day oil-based miconazole suppository; for change in exposure from the vaginal system: with water-based vaginal miconazole cream. An excerpt:
However, the use of either the 1 day or the 3-day oil-based miconazole suppository was associated with an overall increase in exposure up to 67% for EE and 32% for SA. Considering the potential long-term effect on vaginal system performance, concurrent use of oil-based vaginal suppositories should not occur with the system's use. If there is a need to treat a vaginal condition, water-based vaginal cream or oral therapy may be used concurrently with the vaginal system.

A short description of data set [2]: Recoverable SA and EE after storage. The data set is classed as physicochemical. As to conditions: for amount recoverable from the vaginal system: over 24 months of storage at 25° C. and 60% relative humidity. The procedure: This was quite surprising as a similar trend was not observed during long-term stability studies on the cores before assembly.
• Diluent: methanol/water 58/42 v/v • Dried NES and EE before weighing (100-105° C. 3 h) • EE stock solution: Dissolved 25.0 mg of EE and diluted to 250.0 mL with methanol (duplicates, EE1 and EE2) • NES stock solution: Dissolved 50.0 mg of NES and diluted to 100.0 mL with methanol (duplicates, NES1 and NES2) • Standard solutions: • S1: Diluted 5.0 mL of NES1 and 4.0 mL of EE1 to 50.0 mL with diluent • S2: Diluted 6.0 mL of NES2 and 5.0 mL of EE2 to 50.0 mL with diluent • S3: Diluted 8.0 mL of NES1 and 7.0 mL of EE1 to 50.0 mL with diluent • S4: Diluted 10.0 mL of NES2 and 9.0 mL of EE2 to 50.0 mL with diluent • System suitability solution (SST solution): Diluted 5.0 mL acetone+7.0 mL NES1+6.0 mL EE1 to 50.0 mL with diluent.
Rings were cut into 8 pieces and each piece was divided lengthwise then transferred to an Erlenmeyer flask. • 140 mL of acetone (weight of flask was noted before and after acetone addition) was added to the flask.
• analytical column: Discovery C8, 5 μm, 150×4.6 mm (Supelco) • pre-column: Supelguard, Discovery C8, 5 μm, 20×4.0 mm (Supelco) • stationary phase: endcapped C8 (5 μm particle size) USP L7 • temperature: 30° ° C. Mobile phase: methanol/water 58/42, isocratic elution Flow rate: 1.2 mL/min Detection (assay): NES UV 240 nm, EE UV 280 nm Detection (identity): PDA (photodiode array detector) scanning 220-310 nm, NES 240 nm, EE 280 nm
Run time: 15 min System suitability: SST solution • Area precision (n=5): RSD (%)≤2.0 • Peak tailing (T): 0.8≤T≤1.5 • Blank injections: No interfering peaks Retention times: EE approximately 7 min and NES approximately 9 min Results Assay: Report the average value of three different rings and express as mg EE/ring and mg NES/ring. Results Content uniformity: Calculate the average value of ten different rings. Report with or without remarks according the guidelines outlined in the US Pharmacopeial Convention, incorporated herein by reference, and in particular USP <905>. […]

Data set [3] in a line: PK sub-study of the vaginal system over 13 product-use cycles (21 days in/7 days out), serum SA and EE. The data set is classed as in vivo, human. Also noted: AUC0-21 day / AUC0-1 day: concentration or dose not given beside the values. The procedure: The pharmacokinetics (PK) of the vaginal system described herein were determined during studies related to the prior approved use (i.e., 13 product-use cycles comprising a 21-day “product-in” period and a 7-day “product-out” period). Studies were conducted in 39 women who used the system for up to the 13 product-use cycles. […] Over subsequent product-use cycles, the peak serum concentrations of SA and EE declined.
During a phase 3 trial of the vaginal ring system, three centers participated in a PK sub-study. The PK sub-study was an open-label, multicenter, non-randomized phase 1 study evaluating the PK and pharmacodynamics (PD) of a self-administered vaginal ring system. Enrolled women were healthy, aged 18-38 years, who had regular cycles of 28±7 days and were sexually active with no intention of becoming pregnant for the following 13 months. Exclusion criteria were those typical for oral contraceptive assessments. Women were not permitted to use hormonal contraceptives (other than the study vaginal ring) or vaginal lubricants that could have interfered with steroid absorption during the study.
Women were instructed to use the SA/EE vaginal ring system for 13 consecutive cycles following a 21-days-in and 7-days-out regimen, with the initial ring insertion (day 1 of cycle 1) under investigator supervision at the study clinic. […] In the PK substudy, blood samples from each woman were collected 8 times (see below) per assessed cycles (1, 3, and 13) as per the protocol.
For serum SA and EE measurements, blood samples were collected on treatment days 1-5, 8, 15, and 22 during cycles 1, 3, and 13 with the serum stored at −20° C. Steroid concentrations were determined at each time point using a validated gas chromatography/tandem mass spectrometry (GC-MS/MS; Taylor Technology, Princeton, NJ); the lower limits of quantification (LLOQ) were 50 pg/mL (135 pmol/L) for SA and 10 pg/mL (33.74 pmol/L) for EE. The linear calibration range was 50.0 to 5000 pg/mL for SA and 10.0 to 1000 pg/mL for EE. The inter-assay coefficient of variation for SA was 7-15.5% and for EE 8-13% for low, medium, and high-quality control samples used during assays. The intra-assay coefficient of variation for both SA and EE was lower than 12%.

A short description of data set [4]: PK study in females with BMI <25 vs BMI >25. Format: in vivo, human. To be noted: 18 females BMI <25 vs 21 females BMI >25. From the text:
The vaginal system described herein has not been adequately evaluated in females with a body mass index of >29 kg/m2. […] Higher body weight associates with lower systemic exposure of SA and EE.

[5] abbreviates: EE in serum, cycle 1, mean (SD).
Setting [6] is: EE in serum, cycle 3, mean (SD).
Setting [7] is: EE in serum, cycle 13, mean (SD).

Turning to `C=C1CC2C3CCC4CC(=O)CCC4C3CCC2(C)C1(OC(C)=O)C(C)=O` (stereo not drawn) [5α-dihydro], at progesterone receptor, the “EC50 to progesterone receptor, fold higher than that of SA” value came to 10 fold.

For the molecule `C#C[C@]1(O)CC[C@H]2[C@@H]3CCc4cc(O)ccc4[C@H]3CC[C@@]21C` [EE, 19-nor-17α-pregna-1,3,5(10)-trien-20-yne-3,17-diol], in data set [1], the “overall increase in exposure” value is “up to 67%”. For the same molecule, in data set [1], the “change in exposure from the vaginal system” value is “no change”. For the same molecule, the “amount recoverable from the core by extraction” value in data set [2] (cores before assembly, after extended storage) is “full amount of EE was found to be recoverable”. In addition, the “amount recoverable from the vaginal system” value in data set [2] is listed as “decreased in a time-dependent manner”. Moreover, the Cavg in data set [3] (EE in serum, cycle 1, mean) was determined as 0.148 nM; in data set [3] (EE in serum, cycle 3, mean), 0.098 nM; in data set [3] (EE in serum, cycle 13, mean) it was 0.064 nM. The Cmax in data set [3] (EE in serum, cycle 1, mean) was determined as 0.435 nM; in data set [3] (female, human, serum, other: vaginal, EE in serum, cycle 3, mean), 0.202 nM; in data set [3] (female, human, serum, other: vaginal, EE in serum, cycle 13, mean), 0.131 nM. For the same molecule, the AUC0-1 day was 7,077 (2,359) pmol*hr/L in data set [3] (setting [5]), 3,033 (1,348) pmol*hr/L in data set [3] (setting [6]) and 2,359 (1,011) pmol*hr/L in data set [3] (setting [7]). Besides, the AUC0-21 day in data set [3] (setting [5]) is 74,814 (33,026) pmol*hr/L; in data set [3] (setting [6]), 49,539 (15,839) pmol*hr/L; in data set [3] (setting [7]), 32,352 (13,817) pmol*hr/L. The Tmax in data set [3] (female, human, serum, vaginal administration, product-use cycles 1, 3 and 13, read-out: median Tmax) was ~2 h. For the same molecule, in data set [4], the “decrease in systemic exposure (AUC 0-21 day) between the two BMI groups” value is recorded as ≤ 33%.

Regarding `C=C1C[C@H]2[C@@H]3CCC4=CC(=O)CC[C@@H]4[C@H]3CC[C@]2(C)[C@@]1(OC(C)=O)C(C)=O` [SA, 16-methylene-17α-acetoxy-19-nor-pregn-4-ene-3,20-dione], the “overall increase in exposure” value in data set [1] was ≤ 32%. Also, the “change in exposure from the vaginal system” value in data set [1] is on record as “no change”. In addition, the “amount recoverable from the vaginal system” value in data set [2] is on record as “remained essentially constant”. The AUC0-21 day in data set [3] (SA in serum, cycle 1, mean) is 259,740 pmol*hr/L; in data set [3] (SA in serum, cycle 3, mean), 480,330 pmol*hr/L; in data set [3] (SA in serum, cycle 13, mean), 127,440 pmol*hr/L. Moreover, the Cavg in data set [3] (SA in serum, cycle 1, mean) was 0.516 nM; in data set [3] (SA in serum, cycle 3, mean) it was 0.3537 nM; in data set [3] (SA in serum, cycle 13, mean) it was 0.254 nM. The peak concentration (Cmax) in data set [3] (SA in serum, cycle 1, mean) was 3.1 nM; in data set [3] (SA in serum, cycle 3, mean), 0.98 nM; in data set [3] (SA in serum, cycle 13, mean), 0.794 nM. The AUC0-1 day is recorded as 40,500 (8,640) pmol*hr/L in data set [3] (SA in serum, cycle 1, mean (SD)); 36,450 (4,320) pmol*hr/L in data set [3] (SA in serum, cycle 3, mean (SD)); 10,530 (3,780) pmol*hr/L in data set [3] (SA in serum, cycle 13, mean (SD)). Further, in data set [4], the “decrease in systemic exposure (AUC 0-21 day) between the two BMI groups” value is listed as “up to 16%”.
